Article PMC9601806, “Calcium Binding Mechanism of Soybean Peptide with Histidine Alteration by Molecular Docking Analysis and Spectroscopic Methods” (Foods, 2022)
Residues, ends and D or L forms follow the SMILES beside them.

Columns and labels:
[1] = Simulated gastrointestinal digestion and Caco-2 absorption, LC-MS/MS identification; assay type: in vitro ADME; settings: pepsin pH 2, 37 °C, 90 min, then trypsin and bile salts pH 7.5, Caco-2 absorption 0.1 mg/mL, 2 h
Method: The simulation of gastrointestinal digestion was carried out following the method described before with some modifications. The gastric set was reproduced by the suspension of porcine pepsin (40 mg) into 1 mL 0.1N HCl. The intestinal stage was stimulated by adding bile salts (40 mg) and trypsin (10 mg) into 5 mL of 0.1 mol/L NaHCO3. Gastric digestion was performed by incubating the CBP–calcium complex or CaCl2 (prepared with equal Ca^2+ concentration, pH = 2) at a pepsin/substrate ratio of 1:100 (w/w) in a water bath shaker (37 °C, 90 min). […], the […] at 1:25 (w/w) of substrates was added, following by adjusting the pH to 7.5. After that, samples were removed after deactivating trypsin by thermal denaturation for 5 min. Then, the obtained samples were lyophilized and stored at −20 °C for the sake of subsequent studies.
The human intestinal Caco-2 cell line has been extensively used as an intestinal barrier model. These cells were cultured in high-glucose Dulbecco’s Eagle’s medium (DMEM), which contained 10% fetal bovine serum (FBS), 100 μg mL^−1 streptomycin, and 100 U mL^−1 penicillin, and were incubated at 37 °C in a humidified 5% CO2 incubator. Transepithelial transport through the Caco-2 single cell layer was performed in accordance with Wang et al.’s method. […]

[2] = cited from earlier work
Method: To clarify the calcium-binding capacity of CBP-H, Nanjing Peptide Biotechnology Corporation. Ltd. (Nanjing, China) synthesized the peptide CBP-H using a solid-phase procedure. High performance liquid chromatography (HPLC) analysis was performed to determine the purity (98%) of CBP-H (Figure S1A), and ESI mass spectrometry was used to confirm the peptide structure. […] In addition, the CBP-H–Ca complex was prepared, followed by ICP-AES to detect the calcium-binding capacity. […] Spectroscopic methods were used to analyze the binding mode and binding sites including ITC, UV, FTIR, and XRD. Isothermal titration calorimetry was always used to measure reversible reactions between bio-molecules. This methodology provided the affinity constant, stoichiometry, enthalpy, and entropy of the biomolecular interactions.

Molecule | stability after simulated gastrointestinal digestion [1] | also measured
CC[C@H](C)[C@H](NC(=O)[C@H](CCC(N)=O)NC(=O)[C@H](CCC(=O)O)NC(=O)[C@H](CC(=O)O)NC(=O)[C@H](CCC(=O)O)NC(=O)[C@@H](N)CC(=O)O)C(=O)N1CCC[C@H]1C(=O)N[C@@H](CO)C(=O)N[C@@H](Cc1c[nH]cn1)C(=O)N1CCC[C@H]1C(=O)N1CCC[C@H]1C(=O)N[C@@H](CCCNC(=N)N)C(=O)O [CBP, Asp-Glu-Asp-Glu-Gln-IIe-Pro-Ser-His-Pro-Pro-Arg] (H-DEDEQIPSHPPR-OH) | partially stable | –
GPAGPHGPVG [tilapia bone collagen peptide, literature comparison] | – | calcium-binding capacity ([2]; tilapia bone collagen peptide): 18.80 ± 0.49 mg/g
CC[C@H](C)[C@H](NC(=O)[C@H](CCC(N)=O)NC(=O)[C@H](CCC(=O)O)NC(=O)[C@H](CC(=O)O)NC(=O)[C@H](CCC(=O)O)NC(=O)[C@@H](N)CC(=O)O)C(=O)N1CCC[C@H]1C(=O)N[C@@H](CO)C(=O)N[C@@H](CC(C)C)C(=O)N1CCC[C@H]1C(=O)N1CCC[C@H]1C(=O)N[C@@H](CCCNC(=N)N)C(=O)O [CBP-H, Asp-Glu-Asp-Glu-Gln-IIe-Pro-Ser-Leu-Pro-Pro-Arg] (H-DEDEQIPSLPPR-OH) | partially stable | –
Thr-Cys-His | – | calcium binding capacity ([2]; peptide from shrimp protein hydrolysates): 2.7 mmol/g
